Measurements as given in PMC10829512, “Transport of metformin metabolites by guanidinium exporters of the small multidrug resistance family” (The Journal of General Physiology, 2024).
Read-outs that look alike come from different tables or passages of the source.

What was measured:
Gdx-Clo [1] = target: T1, Gdx-Clo (Clostridiales bacterium oral taxon 876, UniProt U2EQ00); assay: SSM electrophysiology of Gdx-Clo proteoliposomes; format: biochemical, Clostridales oral taxon 876; settings: for Transport currents in substrate screen: 2 mM substrate
T1 sequence (U2EQ00 1-105): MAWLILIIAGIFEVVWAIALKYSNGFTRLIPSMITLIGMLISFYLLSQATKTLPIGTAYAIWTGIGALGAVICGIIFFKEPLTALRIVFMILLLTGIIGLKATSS
Experimental: Gdx-Clo ([Kermani et al., 2018]), Gdx-Eco ([Kermani et al., 2018]), EmrE ([Kermani et al., 2022]), and Gdx-pAmi ([Martinez-Vaz et al., 2022]) construct design and purification have been described previously. […] Proteins were overexpressed in C41(DE3). Expression was induced by the addition of 0.2 mM IPTG for 3 h. Cells were lysed and extracted with 2% n-decyl-β-D-maltoside (DM) for 2 h. After pelleting insoluble cell debris, proteins were purified using cobalt affinity resin. Wash buffer contained 25 mM Tris, pH 8.5, 150 mM NaCl, and 5 mM DM. For Gdx-pAmi, NaCl concentration was increased to 500 mM NaCl. The affinity column was washed with wash buffer, then wash buffer with 10 mM imidazole, prior to elution with wash buffer with 400 mM imidazole. For Gdx-Clo and Gdx-Eco, histidine tags were cleaved with LysC (200 ng/mg of protein; 2 h at room temperature; New England Biolabs), and for all others, histidine tags were cleaved with thrombin (1 U/mg of protein, overnight at room temperature; MilliporeSigma). Proteins were further purified using a gel filtration Superdex200 column (Cytiva) equilibrated with 100 mM NaCl, 10 mM N-2-hydroxyethylpiperazine-N′-2-ethanesulfonic acid (HEPES), pH 7.5, and 5 mM DM. Purified proteins were stored at 4°C for up to 5 days before detergent binding assays. To prepare proteoliposomes for electrophysiology assays, purified protein was mixed with E. coli polar lipid extract (10 mg/ml; Avanti Polar Lipids) solubilized with 35 mM 3-[(3-cholamidopropyl)dimethylammonio]-1-propanesulfonate (CHAPS) at a protein to lipid ratio of 40 μg SMR transporter: mg lipid (1:370 protein:lipid molar ratio) prior to detergent removal by dialysis. For preparations that included Fluc-Bpe, liposomes were reconstituted with a molar ratio of 0.3 Fluc-Bpe:1 SMRGdx: 5920 lipid (1 μg Fluc-Bpe and ∼2.5 μg SMRGdx per mg lipid). For liposome transport assays, proteoliposomes were prepared similarly, except that a 2:1 mixture of 1-palmitoyl, 2-oleoylphosphatidylethanolamine (POPE) and 1-palmitoyl, 2-oleoylphosphatidylglycerol (POPG) (10 mg/ml; Avanti Polar Lipids) was used with 0.2 μg protein/mg lipid. Proteoliposomes were stored at −80°C until use.
(§1) SSM experiments were performed using SURFE^2R N1 instrument (Nanion Technologies). Sensors were prepared with a 1,2-diphytanoyl-sn-glycero-3-phosphocholine (DPhPC) lipid monolayer according to published protocols ([Bazzone et al., 2017]). Each sensor’s capacitance and conductance were verified before use (<80 nF capacitance, <50 nS conductance) using Nanion software protocols. Proteoliposome stock was diluted 1:25 in assay buffer (100 mM KCl, 100 mM KPO4, pH 7.5) prior to adsorption to the DPhPC monolayer. For substrate screening experiments, reference substrate samples (Gdm^+ for SMRGdx, and TPA^+ for SMRQac) were checked periodically to test for the stability of the sensor; if the current amplitude of the reference compound differed by >10% on one sensor, it indicated the desorption of liposomes, and the sensor was not used for further experiments. For every SSM electrophysiology experiment, we used the same general solution exchange protocol: after 2 s perfusion with a non-activating solution, we perfused substrate-containing buffer for 2 s and then returned to the equilibrium condition with a 4 s perfusion of non-activating buffer. For experiments with the S104C/A70C crosslinked variant, reducing conditions were established by the addition of 2.5 mM tris(2-carboxyethyl)phosphine (TCEP) to the activating and non-activating buffers.
We screened a series of metformin metabolites for transport using SSM electrophysiology (Fig. 2, A and B).

Gdx-Clo [2] = target: T1, Gdx-Clo; assay: Isothermal titration calorimetry (ITC); format: binding, Clostridales oral taxon 876; settings: for n: ITC binding stoichiometry, pH 8.5, mean ± SEM; for Kd / TΔS / ΔG / ΔH / Binding stoichiometry: ITC; for Kd / TΔS / ΔG / ΔH: pH 8.5, 25°C, mean ± SEM; for Binding stoichiometry: pH 8.5, exothermic binding
Experimental: ITC experiments were conducted using a low-volume Nano ITC instrument (TA Instruments). […] For each experiment, 300 µl of 700 µM Gdx-Clo was loaded in the sample chamber maintained at 25°C with 350 rpm stirring speed. […] The sample was titrated (0.75 µl injections) at 100-s increments. Once an acceptable baseline slope was achieved (0.30 µW/h and 0.03 µW standard deviation), a 200 s baseline (∼112 µW) was taken prior to beginning titrations. Data were analyzed using NanoAnalyze software.
For both substrates, the Kd value measured using ITC was in good agreement with the Kd value obtained using tryptophan fluorescence, validating the tryptophan fluorescence approach to monitor substrate binding.

Fluc-Bpe = Fluc-Bpe (Bordetella pertussis, UniProt Q7VYU0); assay: SSM electrophysiology cross-reactivity control with individually reconstituted Fluc-Bpe; format: biochemical
Chain of Fluc-Bpe (Q7VYU0 whole entry): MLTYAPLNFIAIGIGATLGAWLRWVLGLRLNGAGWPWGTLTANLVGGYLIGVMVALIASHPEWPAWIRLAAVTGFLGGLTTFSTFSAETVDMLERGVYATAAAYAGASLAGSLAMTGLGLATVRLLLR
Experimental: as §1, with “For experiments with the S104C/A70C crosslinked variant, reducing conditions were established by the addition of 2.5 mM tris(2-carboxyethyl)phosphine (TCEP) to the activating and non-activating buffers.” left out
The adsorption of proteoliposomes to the sensor is subject to considerable variability from experiment to experiment, so the current measurements from different sensors cannot be quantitatively compared ([Barthmes et al., 2016]). […]

[3] = pH 7.5, mean ± SEM, read-out: Km determined using SSM electrophysiology

Row | Structure (SMILES) | Transport currents in substrate screen (Gdx-Clo [1]) | Km (Gdx-Clo [1]; [3]) | Km (Gdx-Clo [1]; read-out: Km value) | Maximal velocity for Gdm+ relative to guanylurea (Gdx-Clo [1]; substrate at fivefold Km, normalized to Fluc-Bpe fluoride current) | n (Gdx-Clo [2]) | Kd (Gdx-Clo [2]) | TΔS (Gdx-Clo [2]) | ΔG (Gdx-Clo [2]) | ΔH (Gdx-Clo [2]) | Binding stoichiometry (Gdx-Clo [2]) | Response of Fluc-Bpe to substrate perfusion (Fluc-Bpe)
1 | N=C(N)N [Gdm^+, guanidinium] | transported | 500 ± 100 µM | 500 µM | approximately twofold higher | 0.56 ± 0.04 | 410 ± 40 µM | -0.3 ± 0.9 kcal/mol | -4.6 ± 0.1 kcal/mol | -4.9 ± 1.0 kcal/mol | ~1 substrate per protein dimer | do not elicit a response
2 | N=C(N)NC(N)=O [Guanylurea, guanylurea] | transported | 220 ± 60 µM | 220 µM | – | 0.43 ± 0.03 | 140 ± 30 µM | -1.8 ± 0.6 kcal/mol | -5.4 ± 0.06 kcal/mol | -7.2 ± 0.6 kcal/mol | ~1 substrate per protein dimer | do not elicit a response
